Values quoted from earlier work, collected in patent US9492489B2, “Uses of hibiscus, in particular pharmaceutical uses” (NATUREX, priority 2007, dated 2016).

Legend:
[1] = tested on: Pseudomonas aeruginosa
[2] = tested on: Bacillus subtilis
[3] = tested on: Staphylococcus aureus
[4] = tested on: Escherichia coli
[5] = tested on: Bacillus pumpilus

Measured: antibacterial properties in vitro

O=c1c(O)c(-c2ccc(O)c(O)c2)oc2c(O)c(O)cc(O)c12 [gossypetin, 3,5,7,8,3′,4′-hexahydroxy-flavone]
antibacterial properties: all assays above
